Patent EP0327365B1, “Improvements in or relating to modified haptens useful as imaging and therapeutic agents” (HYBRITECH INCORPORATED, priority 1988, dated 1989)

How the values were obtained:
T-380 tumors [1] = assay: Hapten biodistribution, prelocalization protocol with bifunctional antibody ECH037.2; type: in vivo, nude mice; details: in words
Protocol: (§1) Two protocols were used for examining the biodistribution of the derivatized haptens in the presence of the bifunctional antibody ECH037.2. In a premix protocol, ECH037.2 and the derivatized hapten were combined prior to injection in the animals. In the prelocalization protocol, ECH037.2 was injected into the animals, and the antibody was allowed to prelocalize for 24 hours prior to injection of the radiolabeled hapten.
(§2) Biodistribution studies were performed in nude mice carrying subcutaneous implants of the human colon carcinoma cell line T-380 which expresses the carcinoembryonic antigen (CEA) recognized by ECH037.2. Briefly, Balb/C Nu/Nu mice were injected subcutaneously with a minced preparation of T-380 tumor implants and maintained for approximately two weeks, or until the tumor implant had grown to a size of approximately 0.5 grams as described by Hagan, P.L., et al. J. Nuc. Med., 26 1418-1423 (1985). Mice were kept in a sterile environment to prevent complications due to bacterial or viral infections. Biodistributions were performed as described by Halpern, S., et al., Cancer Res. 43, 5347-5355 (1983). Briefly, the radiolabeled haptens were injected intravenously in […], and the pharmacokinetics were evaluated at several time points post-injection. At these times, mice were sacrificed and weighed. Organs were removed, their weight recorded, and each organ was then washed in sterile PBS, pH 7.0, and fixed in formalin solution. Samples of blood, urine and feces also were collected and their weight similarly recorded. The organs, or a portion thereof, were transferred to clean tubes and their radioactive content was determined in a well-type gamma-counter.
(§3) Relative radioactive content of each organ was expressed as a percentage of injected dose per organ.
To indium-label the chelating agents for the prelocalization protocol, 5 »l of 0.1 mM chelating agent was combined with X »l of ¹¹¹InCl₃ (in 50 mM HCl) and (x+5) »l of 0.26 M ammonium citrate, pH 6.0. X was calculated by the following equation: X = 200 »Ci/A »Ci/»l [formula] where A is the specific activity of the ¹¹¹InCl₃ solution. The solution was vortexed and allowed to stand at room temperature for 15 minutes, after which incorporation of ¹¹¹In label into the chelating agent was determined as described for the premix protocol. If at least 95 percent of the ¹¹¹In was bound by the chelating agent, the material was then diluted to a final volume of 2 ml with isotonic (1.39 percent, w/v) sodium bicarbonate containing 1 mg/ml normal human serum albumin. This material (100 »l) then was injected into each tail vein of mice which had each been injected 24 hours earlier with 5 »g of ECH037.2 in 100 »l isotonic sodium bicarbonate containing 1 mg/ml normal human serum albumin.

T-380 tumors [2] = assay: Hapten biodistribution, premix protocol with bifunctional antibody ECH037.2; type: in vivo, nude mice; design: TOTAL RECOV: unit not given here; details: for % DOSE PER GRAM, KIDNEY / % DOSE PER GRAM, LIVER / % DOSE PER GRAM, TUMOR / FECES / URINE / % DOSE PER GRAM, BLOOD / TUMOR/BLOOD / TOTAL RECOV: premix with 20 µg ECH037.2; for % DOSE PER GRAM, BLOOD: 111In-labeled hapten i.v.; for TUMOR/BLOOD: ratio; for Percent Injected Dose in Feces: premix protocol (Table VI); for %Dose per Gram, Blood / %Dose per Gram, Tumor: premix with 20 µg ECH037.2 (Table VIII)
Protocol: as §1, §2, §3
To indium-label the haptens of the invention 10 »l of 0.1 mM ligand was combined with X »l of ¹¹¹InCl₃ (in 50 mM HCl) and (x+10) »l of 0.26 M ammonium citrate, pH 6.0. X is calculated by the following equation: X = (200 »Ci)/(A »Ci/»l) [formula] where A is the specific activity of the ¹¹¹In.
The labeling was done in an acid-washed microfuge tube. After combining all of the components above, the solution was vortexed and allowed to stand at room temperature for 15 minutes.
Incorporation of the ¹¹¹In into the chelating agent was determined by TLC on silica in a methanol/aqueous ammonium acetate solvent system as described by Meares, et al. (Anal. Biochem., 142, 68-75 (1984)). Greater than 95% incorporation of the radioactivity into the chelate was required for the sample to be submitted for a biodistribution assay.
Prior to injection the ¹¹¹In-labeled hapten was diluted into freshly prepared isotonic sodium bicarbonate (1.39% w/v) containing 1 mg/ml normal human serum albumin (Buminate, 25% solution, Travenol Laboratories, Glendale, California) to which the bifunctional antibody had been added. The final composition of the solution was 0.2 mg/ml ECH037.2, 0.5 »M chelate, 0.1 »Ci/»l ¹¹¹In, all in a volume of 2.0 ml. For the biodistribution studies, 100 »l of the solution was injected into the tail vein of each animal.

[3] = tested on: monoclonal antibody CHA255; assay: Determination of hapten-antibody dissociation rates; type: binding, BALB/c mice; details: 22°C; indium complex of hapten from CHA255 after 100 fold excess of indium-115 loaded hapten
Protocol: Hapten-antibody dissociation rates were determined using monoclonal antibody CHA255, prepared as described in Example 2A, by measuring the quantity of ¹¹¹In³⁺ chelate released from the antibody hapten complex as a function of time after addition of a 100 fold excess (over antibody binding sites) of indium-115 loaded hapten. Thus, for each hapten, a 700 »l solution was prepared containing: antibody at a concentration of 160 nM; indium loaded hapten, trace labeled with ¹¹¹In (total concentration = 160 nM); normal human serum albumin at a total concentration of 1.5 mg/mL; and isotonic phosphate buffered saline, (10 mM PO₄²⁻, 150 mM NaCl, pH 7.2). Indium-115 loaded hapten was added to a final Concentration of […]. Reactions were stirred by placing the sample containers ir a rack mounted on a vortexer head.
At various times after addition of the excess hapten, […] portions of the reaction solutions were transferred to Centrifree tubes (Amicon Corperation, Danvers, Massachusetts) and centrifuged at 1500xg for eight to ten minutes. The reaction time was taken to be the time between addition of the excess hapten and the time the centrifuge reached the desired velocity. Six timepoints, each in duplicate, were obtained over a range of about two reaction half-lives for each rate constant determination. A 200 »l portion from each centrifuged and uncentrifuged solution was then counted for ¹¹¹In. The relative concentration of free hapten was taken to be the ratio of counts in the centrifuged solution to the uncentrifuged solution at each timepoint. Times were recorded to the nearest tenth of a minute.
Room temperature rate constants were measured without the aid of a constant temperature bath. The ambient temperature remained at 22°±1 C.
Rate constants and standard deviations were obtained from a plot of the logarithm of relative complex concentration vs. time. Data were analyzed using the linear regression module of the RS/1 Program (BBN Software Products Corporation, Cambridge, Massachusetts).
Control samples were included in each experiment to determine: A) that the initial condition of 100% of labeled hapten bound to antibody was met, and B) that in the absence of antibody, 100% of counts were able to penetrate the Centrifree membrane. […]

O=C(O)CN(CC(=O)O)CC(Cc1ccc(NC(=S)NCCO)cc1)N(CC(=O)O)CC(=O)O (stereo not shown) [EOTUBE]
tumor/organ ratios (T-380 tumors [1]; 24 hours (Figure 7)): high tumor/organ ratios | tumor uptake (T-380 tumors [1]; all time points (Figures 3-5)): high tumor uptake at all time points | % DOSE PER GRAM, KIDNEY (T-380 tumors [2]; 24 hours): 2.8 % DOSE PER GRAM | % DOSE PER GRAM, LIVER (T-380 tumors [2]; 24 hours): 3.8 % DOSE PER GRAM | % DOSE PER GRAM, TUMOR (T-380 tumors [2]; 24 hours): 12.5 % DOSE PER GRAM | FECES (T-380 tumors [2]; 24 hours): 6.2% of total injected dose | URINE (T-380 tumors [2]; 24 hours): 25.9% of total injected dose | % DOSE PER GRAM, BLOOD (T-380 tumors [2]; 24 hours): 9.3 % DOSE PER GRAM | TUMOR/BLOOD (T-380 tumors [2]; 24 hours): 1.34 | Percent Injected Dose in Feces (T-380 tumors [2]; 24 hrs.): 6.2 Percent Injected Dose | % DOSE PER GRAM, KIDNEY (T-380 tumors [2]; 48 hours): 1.4 % DOSE PER GRAM | % DOSE PER GRAM, LIVER (T-380 tumors [2]; 48 hours): 3.1 % DOSE PER GRAM | % DOSE PER GRAM, TUMOR (T-380 tumors [2]; 48 hours): 14.5 % DOSE PER GRAM | FECES (T-380 tumors [2]; 48 hours): 7.9% of total injected dose | URINE (T-380 tumors [2]; 48 hours): 49.3% of total injected dose | % DOSE PER GRAM, BLOOD (T-380 tumors [2]; 48 hours): 4.7 % DOSE PER GRAM | TUMOR/BLOOD (T-380 tumors [2]; 48 hours): 3.09 | Percent Injected Dose in Feces (T-380 tumors [2]; 48 hrs.): 7.9 Percent Injected Dose | tumor uptake (T-380 tumors [2]; premix protocol, Figure 1 (24 and 48 hours), in words): outstanding tumor uptake | tumor/blood ratios (T-380 tumors [2]; premix protocol, Figure 2 (24 and 48 hours), in words): good tumor/blood ratios

O=C(O)CN(CC(=O)O)CC(Cc1ccc(NC(=S)Nc2ccccc2)cc1)N(CC(=O)O)CC(=O)O (stereo not shown) [PHTUBE]
% DOSE PER GRAM, KIDNEY (T-380 tumors [2]; 24 hours): 2.9 % DOSE PER GRAM | % DOSE PER GRAM, LIVER (T-380 tumors [2]; 24 hours): 3.6 % DOSE PER GRAM | % DOSE PER GRAM, TUMOR (T-380 tumors [2]; 24 hours): 12.4 % DOSE PER GRAM | FECES (T-380 tumors [2]; 24 hours): 13.9% of total injected dose | TOTAL RECOV (T-380 tumors [2]; 24 hours): 57.2 | URINE (T-380 tumors [2]; 24 hours): 20.3% of total injected dose | % DOSE PER GRAM, BLOOD (T-380 tumors [2]; 24 hours): 8.9 % DOSE PER GRAM | TUMOR/BLOOD (T-380 tumors [2]; 24 hours): 1.39 | Percent Injected Dose in Feces (T-380 tumors [2]; 24 hrs.): 13.9 Percent Injected Dose | % DOSE PER GRAM, KIDNEY (T-380 tumors [2]; 48 hours): 1.7 % DOSE PER GRAM | % DOSE PER GRAM, LIVER (T-380 tumors [2]; 48 hours): 2.3 % DOSE PER GRAM | % DOSE PER GRAM, TUMOR (T-380 tumors [2]; 48 hours): 10.6 % DOSE PER GRAM | FECES (T-380 tumors [2]; 48 hours): 21.7% of total injected dose | TOTAL RECOV (T-380 tumors [2]; 48 hours): 62.4 | URINE (T-380 tumors [2]; 48 hours): 24.5% of total injected dose | % DOSE PER GRAM, BLOOD (T-380 tumors [2]; 48 hours): 5.4 % DOSE PER GRAM | TUMOR/BLOOD (T-380 tumors [2]; 48 hours): 1.96 | Percent Injected Dose in Feces (T-380 tumors [2]; 48 hrs.): 27.1 Percent Injected Dose | t1/2, Dissociation Half-Lives [3]: 1.25 h

NC(=S)Nc1ccc(CC(CN(CC(=O)O)CC(=O)O)N(CC(=O)O)CC(=O)O)cc1 (stereo not shown) [TUBE]
% DOSE PER GRAM, KIDNEY (T-380 tumors [2]; 24 hours): 2.4 % DOSE PER GRAM | % DOSE PER GRAM, LIVER (T-380 tumors [2]; 24 hours): 4.0 % DOSE PER GRAM | % DOSE PER GRAM, TUMOR (T-380 tumors [2]; 24 hours): 8.5 % DOSE PER GRAM | FECES (T-380 tumors [2]; 24 hours): 4.1% of total injected dose | TOTAL RECOV (T-380 tumors [2]; 24 hours): 48.2 | URINE (T-380 tumors [2]; 24 hours): 23.7% of total injected dose | % DOSE PER GRAM, BLOOD (T-380 tumors [2]; 24 hours): 8.0 % DOSE PER GRAM | TUMOR/BLOOD (T-380 tumors [2]; 24 hours): 1.06 | %Dose per Gram, Blood (T-380 tumors [2]; 24 hrs. post-injection): 8.0 %Dose per Gram | %Dose per Gram, Tumor (T-380 tumors [2]; 24 hrs. post-injection): 8.5 %Dose per Gram | Percent Injected Dose in Feces (T-380 tumors [2]; 24 hrs.): 4.1 Percent Injected Dose | % DOSE PER GRAM, KIDNEY (T-380 tumors [2]; 48 hours): 1.1 % DOSE PER GRAM | % DOSE PER GRAM, LIVER (T-380 tumors [2]; 48 hours): 1.6 % DOSE PER GRAM | % DOSE PER GRAM, TUMOR (T-380 tumors [2]; 48 hours): 6.5 % DOSE PER GRAM | FECES (T-380 tumors [2]; 48 hours): 9.8% of total injected dose | TOTAL RECOV (T-380 tumors [2]; 48 hours): 69.5 | URINE (T-380 tumors [2]; 48 hours): 48.8% of total injected dose | % DOSE PER GRAM, BLOOD (T-380 tumors [2]; 48 hours): 3.8 % DOSE PER GRAM | TUMOR/BLOOD (T-380 tumors [2]; 48 hours): 1.71 | %Dose per Gram, Blood (T-380 tumors [2]; 48 hrs. post-injection): 3.8 %Dose per Gram | %Dose per Gram, Tumor (T-380 tumors [2]; 48 hrs. post-injection): 6.5 %Dose per Gram | Percent Injected Dose in Feces (T-380 tumors [2]; 48 hrs.): 9.9 Percent Injected Dose | %Dose per Gram, Blood (T-380 tumors [2]; 72 hrs. post-injection): 1.7 %Dose per Gram | %Dose per Gram, Tumor (T-380 tumors [2]; 72 hrs. post-injection): 5.3 %Dose per Gram | t1/2, Dissociation Half-Lives [3]: 1.4 h
